In general, Kd refers to the constant that tells how readily two partners part at equilibrium. Lower therefore signals a tighter complex.

The target of one test is T1, VHL (Homo sapiens, UniProt P40337).
T1 construct: VHL (aa 54-213) in His-tagged VCB complex with EloB (aa 1-104) and EloC (aa 1-112); with EloB and EloC (VCB complex)
Nature of the test: ITC (reverse titration, purified VCB complex). Type of test: binding.

The target in test [1] is T2, ERα-LBD (estrogen receptor, ER) (Homo sapiens, UniProt P03372).
T2 construct: gene ESR1; ERα-LBD (aa 298–554)
T2 sequence (P03372 298-554): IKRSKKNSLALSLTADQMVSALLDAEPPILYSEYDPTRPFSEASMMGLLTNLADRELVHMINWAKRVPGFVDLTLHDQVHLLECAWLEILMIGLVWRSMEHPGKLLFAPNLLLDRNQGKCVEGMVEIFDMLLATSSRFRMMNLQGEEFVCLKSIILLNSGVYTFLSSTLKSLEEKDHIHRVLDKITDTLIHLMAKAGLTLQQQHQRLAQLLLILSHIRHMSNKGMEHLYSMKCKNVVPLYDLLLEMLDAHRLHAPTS
The test can be described thus: ITC (reverse titration, purified ERα-LBD). Type of test: binding.

T1 sequence (P40337 54-213): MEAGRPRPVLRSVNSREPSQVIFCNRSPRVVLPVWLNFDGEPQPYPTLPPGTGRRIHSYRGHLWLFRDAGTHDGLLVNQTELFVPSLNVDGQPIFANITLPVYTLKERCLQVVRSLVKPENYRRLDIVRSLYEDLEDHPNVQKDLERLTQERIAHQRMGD
T1 sequence (Q15370 1-104 partner): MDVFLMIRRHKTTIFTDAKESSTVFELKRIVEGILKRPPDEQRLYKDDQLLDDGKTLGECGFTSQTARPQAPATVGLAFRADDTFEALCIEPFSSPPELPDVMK
T1 sequence (Q15369 whole entry partner, the tested form may be a part): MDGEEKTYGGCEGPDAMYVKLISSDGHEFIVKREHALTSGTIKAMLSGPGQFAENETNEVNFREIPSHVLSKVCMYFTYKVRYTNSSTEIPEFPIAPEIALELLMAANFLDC

As for `Cc1ncsc1-c1ccc(CNC(=O)[C@@H]2C[C@@H](O)CN2C(=O)[C@@H](NC(=O)CCCCCCCCCC(=O)NCCOc2ccc(C(=C(CCCl)c3ccccc3)c3ccc(O)cc3)cc2)C(C)(C)C)cc1` [PROTAC 8], the results for the Kd (at VHL; in test [1]) were 4.37 µM and 2.14 µM, respectively.

Values taken from article PMC9681730, “DeepPROTACs is a deep learning-based targeted degradation predictor for PROTACs” (Nature Communications, 2022).
